According to patent US7211581B2, “Substituted 2-(diaza-bicyclo-alkyl)-pyrimidone derivatives” (Sanofi-Aventis, priority 2003, dated 2007):
Counter-ions that a name gives are not always drawn.

Tests used:
GSK3β = GSK3β (Homo sapiens, UniProt P49841); experiment: Inhibitory activity against GSK3β (33P-ATP phosphorylation of prephosphorylated GS1 peptide, two protocols); format: biochemical
Description: Inhibitory Activity of the Medicament of the Present Invention Against GSK3β Two different protocols can be used. In a first protocol: 7.5 μM of prephosphorylated GS1 peptide and 10 μM ATP (containing 300,000 cpm of ^33P-ATP) were incubated in 25 mM Tris-HCl, pH 7.5, 0.6 mM DTT, 6 mM MgCl2, 0.6 mM EGTA, 0.05 mg/ml BSA buffer for 1 hour at room temperature in the presence of GSK3beta (total reaction volume: 100 microliters). In a second protocol: 4.1 μM of prephosphorylated GS 1 peptide and 42 μM ATP (containing 260,000 cpm ^33P-ATP) were incubated in 80 mM Mes-NaOH, pH 6.5, 1 mM Mg acetate, 0.5 mM EGTA, 5 mM 2-mercaptoethanol, 0.02% Tween 20, 10% glycerol buffer for 2 hours at room temperature in the presence of GSK3beta. Inhibitors were solubilised in DMSO (final solvent concentration in the reaction medium, 1%). The reaction was stopped with 100 microliters of a solution made of 25 g polyphosphoric acid (85% P2O5), 126 ml 85% H3PO4, H2O to 500 ml and then diluted to 1:100 before use. An aliquot of the reaction mixture was then transferred to Whatman P81 cation exchange filters and rinsed with the solution described above. Incorporated 33P radioactivity was determined by liquid scintillation spectrometry. The phosphorylated GS-1 peptide had the following sequence: • NH2-[…](P)EDEE-COOH.

GSK3β, sequence (P49841 whole entry, species assumed): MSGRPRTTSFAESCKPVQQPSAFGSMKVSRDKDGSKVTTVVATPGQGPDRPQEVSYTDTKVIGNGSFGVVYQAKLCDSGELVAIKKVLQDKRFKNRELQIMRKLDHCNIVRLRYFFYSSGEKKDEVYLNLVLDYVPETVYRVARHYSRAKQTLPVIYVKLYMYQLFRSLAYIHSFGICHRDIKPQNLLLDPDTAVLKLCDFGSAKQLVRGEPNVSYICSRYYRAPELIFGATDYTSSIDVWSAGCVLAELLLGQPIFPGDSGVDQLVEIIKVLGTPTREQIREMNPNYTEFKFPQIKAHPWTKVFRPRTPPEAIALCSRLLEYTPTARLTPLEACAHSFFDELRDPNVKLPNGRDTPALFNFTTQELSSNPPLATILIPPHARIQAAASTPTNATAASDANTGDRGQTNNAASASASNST

SMILES: Cn1c(N2CC3C[C@H]2CN3C(=O)c2ccc(Br)cc2)nc(-c2ccncn2)cc1=O [Compound 24, (1S)-2-(5-(4-Bromo-benzoyl)-2,5-diaza-bicyclo[2.2.1]hept-2-yl)-1-methyl-1H-[4,4′]bipyrimidinyl-6-one]
- IC50 (GSK3β): 6 nM
- melting point: 142 to 144 °C

SMILES: Cn1c(N2CC3C[C@H]2CN3)nc(-c2ccncc2)cc1=O (as salt: hydrochloride)
- melting point: 240 to 242 °C

SMILES: Cc1ccc(N2C[C@@H]3CC2CN3c2nc(-c3ccncc3)cc(=O)n2C)cc1 [4′, (1S)-3-Methyl-6-pyridin-4-yl-2-(5-p-tolyl-2,5-diaza-bicyclo[2.2.1]hept-2-yl)-3H-pyrimidin-4-one]
- IC50 (GSK3β): 4 nM
- melting point: 123 to 125 °C

SMILES: Cn1c(N2CC3C[C@H]2CN3)nc(-c2ccncn2)cc1=O (as salt: hydrochloride)
- melting point: 275 to 277 °C
